Test results as given in US9309276B2, “Synthetic lipid A derivative” (University of Georgia Research Foundation, Inc., priority 2007, dated 2016).

Molecular target: T1, murine TLR4, MD2, and CD14 (Mus musculus, UniProt Q9JHF9+Q9QUK6)
T1 construct: host or cells: HEK 293T
T1 sequence (Q9QUK6 26-835): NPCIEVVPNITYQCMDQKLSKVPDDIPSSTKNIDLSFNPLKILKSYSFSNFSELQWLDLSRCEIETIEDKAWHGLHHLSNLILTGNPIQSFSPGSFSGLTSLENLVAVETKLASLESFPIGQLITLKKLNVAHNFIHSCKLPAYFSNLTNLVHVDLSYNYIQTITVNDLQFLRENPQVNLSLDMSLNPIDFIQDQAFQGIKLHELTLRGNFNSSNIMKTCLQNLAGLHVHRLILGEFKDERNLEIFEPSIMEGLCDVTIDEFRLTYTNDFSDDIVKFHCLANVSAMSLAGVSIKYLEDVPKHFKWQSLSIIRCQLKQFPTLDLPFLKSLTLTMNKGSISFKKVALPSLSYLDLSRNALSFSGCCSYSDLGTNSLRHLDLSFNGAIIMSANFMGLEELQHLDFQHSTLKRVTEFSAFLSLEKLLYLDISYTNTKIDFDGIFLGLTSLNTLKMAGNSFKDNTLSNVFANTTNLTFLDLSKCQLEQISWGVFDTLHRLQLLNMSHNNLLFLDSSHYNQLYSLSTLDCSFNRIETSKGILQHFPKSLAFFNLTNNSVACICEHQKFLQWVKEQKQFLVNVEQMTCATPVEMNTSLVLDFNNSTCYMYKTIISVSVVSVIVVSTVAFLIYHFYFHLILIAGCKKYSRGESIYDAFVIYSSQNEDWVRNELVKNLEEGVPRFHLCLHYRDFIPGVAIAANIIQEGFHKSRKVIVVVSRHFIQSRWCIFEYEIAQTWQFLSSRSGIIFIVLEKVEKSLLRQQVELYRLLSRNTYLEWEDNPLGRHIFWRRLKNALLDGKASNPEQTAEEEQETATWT
T1 sequence (Q9JHF9 19-160): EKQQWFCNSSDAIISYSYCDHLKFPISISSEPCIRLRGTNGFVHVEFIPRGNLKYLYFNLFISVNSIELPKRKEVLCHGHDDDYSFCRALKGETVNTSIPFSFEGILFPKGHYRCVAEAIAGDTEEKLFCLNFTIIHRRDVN
Assay: NF-κB activation (luciferase reporter) in HEK 293T cells stably transfected with murine TLR4/MD2/CD14
Assay type: cell-based
Settings: for EC50: 4 h exposure, dual-luciferase, best-fit value
Protocol: Induction of NF-κB activation was determined in triplicate cultures of HEK 293T cells stably transfected with murine TLR4, MD2, and CD14 and transiently transfected with pELAM-Luc, pRL-TK, and pcDNA3 plasmids. Forty-four hours post-transfection, cells were treated with E. coli LPS or lipid A derivatives 1-5 at the indicated concentrations or were left untreated (control). Forty-eight hours post-transfection, NF-κB activation was determined by firefly luciferase activity relative to Renilla luciferase activity. In the transfection experiment shown, human TNF-α (10 ng/mL) induced 12.1±0.3-fold activation of NF-κB.
To obtain further support that the EC50 values of secreted TNF-α protein are not affected by transcriptional, translational, or protein processing processes, dose response curves for the activation of the transcription factor NF-κB were determined for each compound and the results compared with similar data for secretion of TNF-α protein. Thus, compounds 1-5, and E. coli LPS were exposed at a range of concentrations to HEK 293T cells stably transfected with […] TLR4/MD2/CD14 and transiently transfected with a plasmid containing the reporter gene pELAM-Luc (NF-κB dependent firefly luciferase reporter vector) and a plasmid containing the control gene pRL-TK (Renilla luciferase control reporter vector). As a negative control, wild type HEK 293T cells transiently transfected with plasmids containing the reporter gene pELAM-Luc and control gene pRL-TK were used. After an incubation time of 4 h, the activity was measured using a commercial dual-luciferase assay.
The day before transfection, HEK 293T wild type cells and HEK 293T cells stably transfected with murine TLR4/MD2/CD14 were plated in 96-well tissue culture plates (16,000 cells/well). The next day, cells were transiently transfected using PolyFect Transfection Reagent (Qiagen) with expression plasmids pELAM-Luc (NF-κB-dependent firefly luciferase reporter plasmid, 50 ng/well) (Chow et al., J. Biol. Chem. 1999, 274, 10689-10692) and pRL-TK (Renilla luciferase control reporter vector, 1 ng/well; Promega) as an internal control to normalize experimental variations. The empty vector pcDNA3 (Invitrogen) was used as a control and to normalize the DNA concentration for all of the transfection reactions (total DNA 70 ng/well). […] The luciferase activity was measured using the Dual-Luciferase Reporter Assay System (Promega) according to the manufacturer's instructions and the Fluoroskan Accent FL combination luminometer/fluorometer (Thermo Electron Corporation). […]
Concentration-response data were analyzed using nonlinear least-squares curve fitting in Prism (GraphPad Software, Inc.). […]

CCCCCCCCCCCCCCCC(=O)O[C@H](CCCCCCCCCCCC(C)C)CC(=O)N[C@H]1[C@H](OC[C@H]2O[C@H](OP(=O)(O)O)[C@H](NC(=O)C[C@H](O)CCCCCCCCCCCC(C)C)[C@@H](O)[C@@H]2O)O[C@H](CO)[C@@H](O)[C@@H]1ONC(=O)C[C@H](O)CCCCCCCCCC(C)C [Compound 104, 6-O-{2-Deoxy-2-[(R)-3-hexadecanoyloxy-15-methyl-hexadecanoylamino]-3-O—[(R)-3-hydroxy-13-methyl-tetradecanoylamino]-β-D-glucopyranosyl}-2-deoxy-2-[(R)-3-hydroxy-15-methyl-hexadecanoylamino]-α-D-glucopyranose 1-phosphate]
NF-κB activation, mouse TLR4/MD2/CD14 (Example III, 104 at 0.1, 1 and 10 μg mL−1, E. coli LPS 10 ng mL−1, 4 h): at high concentrations, compound 104 could induce NF-κB activation

CCCCCCCCCCCCCC(=O)OC(CCCCCCCCCCC)CC(=O)OC1C(NC(=O)CC(CCCCCCCCCCC)OC(=O)CCCCCCCCCCC)C(OCC2OC(OP(=O)(O)O)C(NC(=O)CC(O)CCCCCCCCCCC)C(OC(=O)CC(O)CCCCCCCCCCC)C2O)OC(CO)C1OP(=O)(O)O [Lipid A 1, 6-O-{2-Deoxy-2-[(R)-3-dodecanoyloxy-tetradecanoylamino]-3-O—[(R)-3-tetradecanoyloxy-tetradecanoyl]-β-D-glucopyranosyl}-2-deoxy-3-O—[(R)-3-hydroxy-tetradecanoyl]-2-[(R)-3-hydroxy-tetradecanoylamino]-α-D-glucopyranose 1,4′-bisphosphate]
EC50: 0.038 µM

CCCCCCCCCCCC(=O)OC(CCCCCCCCCCC)CC(=O)NC1C(OCC2OC(OP(=O)(O)O)C(NC(=O)CC(O)CCCCCCCCCCC)C(OC(=O)CC(O)CCCCCCCCC)C2O)OC(CO)C(OP(=O)(O)O)C1OC(=O)CC(CCCCCCCCC)OC(=O)CCCCCCCCCCC [Lipid A 2, 6-O-{2-Deoxy-3-O—[(R)-3-dodecanoyloxy-dodecanoyl]-2-[(R)-3-dodecanoyloxy-tetradecanoylamino]-β-D-glucopyranosyl}-2-deoxy-3-O—[(R)-3-hydroxy-dodecanoyl]-2-[(R)-3-hydroxy-tetredecanoylamino]-α-D-glucopyranose 1,4′-bisphosphate]
EC50: 0.014 µM

CCCCCCCCCCCCCCCC(=O)OC(CCCCCCCCCCC)CC(=O)NC1C(OP(=O)(O)O)OC(COC2OC(CO)C(OP(=O)(O)O)C(OC(=O)CC(CCCCCCCCC)OC(=O)CCCCCCCCCCC)C2NC(=O)CC(CCCCCCCCCCC)OC(=O)CCCCCCCCCCC)C(O)C1OC(=O)CC(O)CCCCCCCCC [Lipid A 4, 6-O-{2-Deoxy-3-O—[(R)-3-dodecanoyloxy-dodecanoyl]-2-[(R)-3-dodecanoyloxy-tetradecanoylamino]-β-D-glucopyranosyl}-2-deoxy-2-[(R)-3-hexadecanoyloxy-tetredecanoylamino]-3-O—[(R)-3-hydroxy-dodecanoyl]-α-D-glucopyranose 1,4′-bisphosphate]
EC50: 0.053 µM
